Data set [1] deals with T1, Poly [ADP-ribose] polymerase 2 (Homo sapiens, UniProt Q9UGN5). As to the kind of experiment: Inhibition of human PARP-2 incubated for 18 to 20 hrs by scintillation proximity assay.
For the next data set, the species on record is Homo sapiens. As to the kind of experiment: Selectivity index, ratio of IC50 of human PARP-1 to IC50 of human PARP-2.
Data set [2] deals with T2, Poly [ADP-ribose] polymerase 1 (Homo sapiens, UniProt P09874). Briefly: Inhibition of human PARP-1 using histone as substrate incubated for 16 hrs by ELISA assay. (In general: An ELISA detects its analyte on a solid surface through an enzyme-linked reagent.)
T2 sequence (P09874 whole entry): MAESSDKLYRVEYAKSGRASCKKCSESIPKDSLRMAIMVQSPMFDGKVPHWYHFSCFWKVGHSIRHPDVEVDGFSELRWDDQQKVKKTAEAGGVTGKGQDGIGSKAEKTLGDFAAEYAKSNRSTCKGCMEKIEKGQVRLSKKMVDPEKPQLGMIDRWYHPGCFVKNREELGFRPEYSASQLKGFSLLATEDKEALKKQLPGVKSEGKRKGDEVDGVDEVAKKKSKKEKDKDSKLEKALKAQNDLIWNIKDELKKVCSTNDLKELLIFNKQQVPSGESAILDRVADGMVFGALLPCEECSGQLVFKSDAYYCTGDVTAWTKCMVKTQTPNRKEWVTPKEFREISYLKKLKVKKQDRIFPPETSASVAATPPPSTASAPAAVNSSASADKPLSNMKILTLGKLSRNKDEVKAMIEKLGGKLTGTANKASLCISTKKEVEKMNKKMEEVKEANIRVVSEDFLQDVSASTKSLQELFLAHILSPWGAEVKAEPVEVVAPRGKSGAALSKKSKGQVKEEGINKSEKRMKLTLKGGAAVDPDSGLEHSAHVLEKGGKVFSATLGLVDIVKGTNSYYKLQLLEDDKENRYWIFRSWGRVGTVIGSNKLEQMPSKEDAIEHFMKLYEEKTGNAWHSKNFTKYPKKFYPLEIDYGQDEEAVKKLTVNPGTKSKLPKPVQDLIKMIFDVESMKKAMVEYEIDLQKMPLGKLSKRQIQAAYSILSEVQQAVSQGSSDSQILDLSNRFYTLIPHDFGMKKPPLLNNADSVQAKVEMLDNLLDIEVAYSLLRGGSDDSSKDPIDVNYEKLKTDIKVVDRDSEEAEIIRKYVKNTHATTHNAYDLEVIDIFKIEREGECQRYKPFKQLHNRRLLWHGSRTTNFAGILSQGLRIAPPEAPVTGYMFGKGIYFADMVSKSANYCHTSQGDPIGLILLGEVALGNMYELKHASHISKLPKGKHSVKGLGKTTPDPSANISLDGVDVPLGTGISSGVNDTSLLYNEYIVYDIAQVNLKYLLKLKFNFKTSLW
Data set [3] in a line: Inhibition of calf thymus […]. Set-up: species or system Bos taurus.
The target in data set [4] is Poly [ADP-ribose] polymerase 1 (Bos taurus, UniProt P18493). Briefly: Inhibition of calf thymus PARP-1.
Poly [ADP-ribose] polymerase 1 (Bos taurus, UniProt P18493), sequence (P18493 whole entry): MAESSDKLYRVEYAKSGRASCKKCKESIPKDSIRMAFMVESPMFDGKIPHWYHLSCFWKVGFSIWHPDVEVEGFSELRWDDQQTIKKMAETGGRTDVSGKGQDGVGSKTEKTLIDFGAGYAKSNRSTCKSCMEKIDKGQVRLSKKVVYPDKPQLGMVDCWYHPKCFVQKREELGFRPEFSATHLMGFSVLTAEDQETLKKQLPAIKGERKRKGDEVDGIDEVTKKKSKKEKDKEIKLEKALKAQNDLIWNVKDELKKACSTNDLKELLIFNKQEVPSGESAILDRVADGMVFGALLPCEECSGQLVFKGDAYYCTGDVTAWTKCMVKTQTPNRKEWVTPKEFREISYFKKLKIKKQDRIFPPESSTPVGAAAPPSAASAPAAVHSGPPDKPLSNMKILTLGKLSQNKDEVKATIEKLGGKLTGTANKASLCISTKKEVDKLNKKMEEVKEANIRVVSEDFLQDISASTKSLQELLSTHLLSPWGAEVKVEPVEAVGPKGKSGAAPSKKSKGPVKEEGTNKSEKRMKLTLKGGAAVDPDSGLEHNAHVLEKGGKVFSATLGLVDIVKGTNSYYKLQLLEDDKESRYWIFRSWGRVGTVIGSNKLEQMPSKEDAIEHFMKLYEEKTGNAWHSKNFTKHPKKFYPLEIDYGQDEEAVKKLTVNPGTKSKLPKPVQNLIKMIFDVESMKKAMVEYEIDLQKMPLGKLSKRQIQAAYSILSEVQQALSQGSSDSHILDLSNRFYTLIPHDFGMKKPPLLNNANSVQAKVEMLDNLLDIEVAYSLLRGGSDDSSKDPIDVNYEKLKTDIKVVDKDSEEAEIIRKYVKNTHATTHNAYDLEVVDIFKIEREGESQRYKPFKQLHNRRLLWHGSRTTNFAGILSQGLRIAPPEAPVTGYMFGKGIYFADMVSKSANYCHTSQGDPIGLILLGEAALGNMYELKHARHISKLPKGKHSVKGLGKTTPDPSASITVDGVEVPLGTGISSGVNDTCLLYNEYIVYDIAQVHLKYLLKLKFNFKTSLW
Data set [5] addresses Poly [ADP-ribose] polymerase 1 (Mus musculus, UniProt P11103). As to the kind of experiment: Inhibition of mouse recombinant PARP-1 incubated for 60 mins.
Data set [6] concerns the target T1, Poly [ADP-ribose] polymerase 2. As to the kind of experiment: Inhibition of PARP-2 (unknown origin).
For data set [7], the target named is T2, Poly [ADP-ribose] polymerase 1. Briefly: Inhibition of PARP-1 (unknown origin).
Data set [8] shares this target. As to the kind of experiment: Inhibition of human PARP-1.
A short description of data set [9]: Half life in rat. The class given is ADME. The following applies: in vivo.
The nature of data set [10]: Oral bioavailability in rat. It is filed as ADME, organism-based. Conditions: in vivo.
For data set [11], the target named is T2, Poly [ADP-ribose] polymerase 1. Briefly: Inhibition of PARP-1 (unknown origin) assessed as inhibition constant.
The subject of another data set is U-251. As to the kind of experiment: Inhibition of human PARP expressed in U-251 cells at 3 uM relative to control. The class given is cell-based.

The structures appear in SMILES notation.

T1 sequence (Q9UGN5 whole entry): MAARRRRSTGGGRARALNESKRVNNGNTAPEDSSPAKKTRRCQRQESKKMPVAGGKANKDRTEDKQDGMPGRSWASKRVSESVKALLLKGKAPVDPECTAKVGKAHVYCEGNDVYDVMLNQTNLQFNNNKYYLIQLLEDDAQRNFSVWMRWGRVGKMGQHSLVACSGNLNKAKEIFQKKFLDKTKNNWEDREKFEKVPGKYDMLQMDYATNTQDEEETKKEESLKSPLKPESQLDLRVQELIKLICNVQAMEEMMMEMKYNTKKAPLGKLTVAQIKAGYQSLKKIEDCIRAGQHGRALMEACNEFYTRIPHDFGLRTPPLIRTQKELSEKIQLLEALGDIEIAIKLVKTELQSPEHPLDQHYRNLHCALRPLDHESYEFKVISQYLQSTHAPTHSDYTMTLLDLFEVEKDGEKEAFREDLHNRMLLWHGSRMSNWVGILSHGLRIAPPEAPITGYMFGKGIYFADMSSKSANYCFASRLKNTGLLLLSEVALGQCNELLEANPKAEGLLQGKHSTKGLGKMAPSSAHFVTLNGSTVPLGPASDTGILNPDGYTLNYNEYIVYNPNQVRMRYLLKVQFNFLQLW
Poly [ADP-ribose] polymerase 1 (Mus musculus, UniProt P11103), sequence (P11103 whole entry): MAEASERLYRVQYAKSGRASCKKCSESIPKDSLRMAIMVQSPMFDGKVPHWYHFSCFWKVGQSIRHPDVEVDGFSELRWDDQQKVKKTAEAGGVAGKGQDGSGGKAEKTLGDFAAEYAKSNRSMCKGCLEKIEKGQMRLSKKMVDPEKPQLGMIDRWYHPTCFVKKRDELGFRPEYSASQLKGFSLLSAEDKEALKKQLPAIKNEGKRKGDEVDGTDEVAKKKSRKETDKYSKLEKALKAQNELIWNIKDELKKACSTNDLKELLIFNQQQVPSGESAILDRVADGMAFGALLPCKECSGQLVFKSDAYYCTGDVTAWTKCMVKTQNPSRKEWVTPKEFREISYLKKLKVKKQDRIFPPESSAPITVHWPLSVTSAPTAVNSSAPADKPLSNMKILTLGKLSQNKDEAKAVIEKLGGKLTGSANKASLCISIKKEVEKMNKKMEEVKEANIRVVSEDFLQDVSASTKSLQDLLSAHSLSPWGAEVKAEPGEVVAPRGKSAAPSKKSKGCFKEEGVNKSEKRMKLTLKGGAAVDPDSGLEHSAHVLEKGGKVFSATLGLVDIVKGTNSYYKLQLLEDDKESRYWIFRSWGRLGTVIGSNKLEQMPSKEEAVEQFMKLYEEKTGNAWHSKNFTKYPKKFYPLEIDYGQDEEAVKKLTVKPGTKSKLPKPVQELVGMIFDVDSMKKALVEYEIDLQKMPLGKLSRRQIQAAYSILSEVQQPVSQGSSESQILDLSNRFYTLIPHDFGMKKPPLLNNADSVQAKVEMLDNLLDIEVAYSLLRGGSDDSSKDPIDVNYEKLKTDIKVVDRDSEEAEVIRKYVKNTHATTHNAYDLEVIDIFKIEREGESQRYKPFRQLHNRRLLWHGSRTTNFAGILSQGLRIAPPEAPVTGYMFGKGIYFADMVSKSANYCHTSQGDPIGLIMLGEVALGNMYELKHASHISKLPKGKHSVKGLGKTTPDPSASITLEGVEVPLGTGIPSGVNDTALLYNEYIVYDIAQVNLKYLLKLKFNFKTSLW

A word on the IC50: it is the concentration that inhibits the measured activity by half. The molecule `Cn1cccc1/C=C1\C(=O)NC(=O)c2ccccc21` gave a 50% inhibitory concentration (IC50) in [1] of 4000 nM.

`CC(C)(C)[Si](C)(C)OCCCN1CCN(C(=O)c2cc(Cn3c(=O)[nH]c(=O)c4ccccc43)ccc2F)CC1=O`: the Ratio IC50 in the data set listed under Homo sapiens amounted to 8. The 50% inhibitory concentration (IC50) in data set [2] was 1.29 nM.

As for `Cc1cccc2c(=O)[nH]c(CCCN3CC=C(c4ccc(F)cc4)CC3)nc12`, the 50% inhibitory concentration (IC50) in data set [3] amounted to 167 nM; in data set [4] it was 16 nM.

On to `O=C(Nc1cccc2c(=O)[nH]ccc12)c1ccccc1`, for which the IC50 in [5] was found to be 1500 nM.

Take `COc1cccc2[nH]c3c4c(c5c(c3c12)C(=O)N(CN1CCN(C)CC1)C5=O)CCC4` [CEP-9722]: the half-inhibitory concentration (IC50) in [6] stood at 6 nM; in [7], 20 nM.

`C[C@]12CCCN1CC1=NNC(=O)c3cc(F)cc4[nH]c2c1c34` [PAMIPARIB] showed an IC50 in data set [6] of 0.11 nM.

Take `NC(=O)c1ccc(I)c([N+](=O)[O-])c1` [INIPARIB]: the half-maximal inhibitory concentration (IC50) in [8] worked out at 100000 nM.

By bioavailability is commonly meant the share of a dose that reaches the circulation, judged against a reference dose that is usually intravenous. Read a high bioavailability as good availability. Consider `Cn1ncnc1[C@H]1c2n[nH]c(=O)c3cc(F)cc(c23)N[C@@H]1c1ccc(F)cc1` [TALAZOPARIB], for which, in [9], the t1/2 was 40 h. In data set [10], the bioavailability was over 40%.

In general, Ki refers to a dissociation constant, usually derived from enzyme kinetics or from competition with a known ligand. As usually defined, the inhibition is the share of the control response that was lost under treatment. Low values mean a weak effect, high ones a strong effect. `O=c1[nH]nc2c3c(cccc13)Oc1ccc(CN3CCC(O)CC3)cc1-2` [E-7016]: the inhibition constant Ki in data set [11] was 50 nM. In the data set with U-251, this molecule returned an inhibition of 84%.

The record behind these values is ChEMBL document CHEMBL5252527, “An Update on Poly(ADP-ribose)polymerase-1 (PARP-1) Inhibitors: Opportunities and Challenges in Cancer Therapy” (J Med Chem, 2016).
